Species on record: Rattus norvegicus
Assay: DrugMatrix - Regimen: Daily Repeat
Format: toxicity, organism-based, Sprague-Dawley
Design: regimen Daily Repeat, gender Male, age 6-8 weeks
Conditions: in vivo, po, route oral GAVAGE, […]; for ABSOLUTE BASOPHIL / ABSOLUTE EOSINOPHIL / ABSOLUTE LYMPHOCYTE / ABSOLUTE MONOCYTE / ABSOLUTE SEGMENTED NEUTROPHIL / BASOPHIL / EOSINOPHIL / ERYTHROCYTE COUNT / HEMATOCRIT / HEMOGLOBIN / LEUKOCYTE COUNT / LYMPHOCYTE / MEAN CORPUSCULAR HEMOGLOBIN / MEAN CORPUSCULAR VOLUME / MONOCYTE / NEUTROPHIL / NUCLEATED RED BLOOD CELLS / PLATELET COUNT: tissue Blood; for ALANINE AMINOTRANSFERASE / ALBUMIN / ALKALINE PHOSPHATASE / ASPARTATE AMINOTRANSFERASE / BLOOD UREA NITROGEN / CARBON DIOXIDE / CHLORIDE / CHOLESTEROL / CREATINE PHOSPHOKINASE / CREATININE / GLUCOSE / LACTATE DEHYDROGENASE / LIPASE / PHOSPHORUS / POTASSIUM / SODIUM / TOTAL BILIRUBIN / TOTAL PROTEIN / URIC ACID: tissue Plasma
[1] = 0 mg/kg, 72 h, dose level Control, time 3 day
[2] = 0 mg/kg, 120 h, dose level Control, time 5 day
[3] = 70 mg/kg, 72 h, dose level M1, time 3 day

CCCCCCCCc1ccc(O)cc1 [4-OCTYLPHENOL]
ABSOLUTE BASOPHIL [1]: 0 CELLS/uL | ABSOLUTE EOSINOPHIL [1]: 0 CELLS/uL | ABSOLUTE LYMPHOCYTE [1]: 11091.17 CELLS/uL | ABSOLUTE MONOCYTE [1]: 172.17 CELLS/uL | ABSOLUTE SEGMENTED NEUTROPHIL [1]: 1186.67 CELLS/uL | BASOPHIL [1]: 0% | EOSINOPHIL [1]: 0% | ERYTHROCYTE COUNT [1]: 5.87 x10E6/uL | HEMATOCRIT [1]: 36.87% | HEMOGLOBIN [1]: 14.03 G/DL | LEUKOCYTE COUNT [1]: 12.45 x10E3/uL | LYMPHOCYTE [1]: 88.67% | MEAN CORPUSCULAR HEMOGLOBIN [1]: 23.93 pg | MEAN CORPUSCULAR VOLUME [1]: 62.73 fL | MONOCYTE [1]: 1.5% | NEUTROPHIL [1]: 9.83% | NUCLEATED RED BLOOD CELLS [1]: 0 /100WBC | PLATELET COUNT [1]: 1150.33 x10E3/uL | ALANINE AMINOTRANSFERASE [1]: 67.17 u/L | ALBUMIN [1]: 4.03 G/DL | ALKALINE PHOSPHATASE [1]: 462.5 u/L | ASPARTATE AMINOTRANSFERASE [1]: 88 u/L | BLOOD UREA NITROGEN [1]: 13.17 mg/dL | CARBON DIOXIDE [1]: 29.33 mmol/L | CHLORIDE [1]: 101 MEQ/L | CHOLESTEROL [1]: 69.17 mg/dL | CREATINE PHOSPHOKINASE [1]: 292.5 u/L | CREATININE [1]: 0.17 mg/dL | GLUCOSE [1]: 167.5 mg/dL | LACTATE DEHYDROGENASE [1]: 198.5 u/L | LIPASE [1]: 10.67 u/L | PHOSPHORUS [1]: 11.73 mg/dL | POTASSIUM [1]: 5.91 MEQ/L | SODIUM [1]: 143.3 MEQ/L | TOTAL BILIRUBIN [1]: 0.18 mg/dL | TOTAL PROTEIN [1]: 5.7 G/DL | URIC ACID [1]: 1.3 mg/dL | ABSOLUTE BASOPHIL [2]: 0 CELLS/uL | ABSOLUTE EOSINOPHIL [2]: 64.33 CELLS/uL | ABSOLUTE LYMPHOCYTE [2]: 12494.67 CELLS/uL | ABSOLUTE MONOCYTE [2]: 117 CELLS/uL | ABSOLUTE SEGMENTED NEUTROPHIL [2]: 1340.67 CELLS/uL | BASOPHIL [2]: 0% | EOSINOPHIL [2]: 0.33% | ERYTHROCYTE COUNT [2]: 5.82 x10E6/uL | HEMATOCRIT [2]: 36.97% | HEMOGLOBIN [2]: 14.18 G/DL | LEUKOCYTE COUNT [2]: 14.02 x10E3/uL | LYMPHOCYTE [2]: 89% | MEAN CORPUSCULAR HEMOGLOBIN [2]: 24.42 pg | MEAN CORPUSCULAR VOLUME [2]: 63.52 fL | MONOCYTE [2]: 0.83% | NEUTROPHIL [2]: 9.83% | NUCLEATED RED BLOOD CELLS [2]: 0 /100WBC | PLATELET COUNT [2]: 1097.83 x10E3/uL | ALANINE AMINOTRANSFERASE [2]: 58.83 u/L | ALBUMIN [2]: 3.92 G/DL | ALKALINE PHOSPHATASE [2]: 414.17 u/L | ASPARTATE AMINOTRANSFERASE [2]: 89.17 u/L | BLOOD UREA NITROGEN [2]: 16.83 mg/dL | CARBON DIOXIDE [2]: 29.17 mmol/L | CHLORIDE [2]: 100.33 MEQ/L | CHOLESTEROL [2]: 54.5 mg/dL | CREATINE PHOSPHOKINASE [2]: 386.17 u/L | CREATININE [2]: 0.23 mg/dL | GLUCOSE [2]: 184.17 mg/dL | LACTATE DEHYDROGENASE [2]: 229.17 u/L | LIPASE [2]: 10.83 u/L | PHOSPHORUS [2]: 10.88 mg/dL | POTASSIUM [2]: 5.97 MEQ/L | SODIUM [2]: 142.2 MEQ/L | TOTAL BILIRUBIN [2]: 0.12 mg/dL | TOTAL PROTEIN [2]: 5.63 G/DL | URIC ACID [2]: 1.55 mg/dL | ABSOLUTE BASOPHIL [3]: 0 CELLS/uL | ABSOLUTE EOSINOPHIL [3]: 0 CELLS/uL | ABSOLUTE LYMPHOCYTE [3]: 11265.33 CELLS/uL | ABSOLUTE MONOCYTE [3]: 137 CELLS/uL | ABSOLUTE SEGMENTED NEUTROPHIL [3]: 1431 CELLS/uL | BASOPHIL [3]: 0% | EOSINOPHIL [3]: 0% | ERYTHROCYTE COUNT [3]: 5.68 x10E6/uL | HEMATOCRIT [3]: 36.37% | HEMOGLOBIN [3]: 13.93 G/DL | LEUKOCYTE COUNT [3]: 12.83 x10E3/uL | LYMPHOCYTE [3]: 88% | MEAN CORPUSCULAR HEMOGLOBIN [3]: 24.57 pg | MEAN CORPUSCULAR VOLUME [3]: 64.1 fL | MONOCYTE [3]: 1% | NEUTROPHIL [3]: 11% | NUCLEATED RED BLOOD CELLS [3]: 0 /100WBC | PLATELET COUNT [3]: 1181.67 x10E3/uL | ALANINE AMINOTRANSFERASE [3]: 74 u/L | ALBUMIN [3]: 3.87 G/DL | ALKALINE PHOSPHATASE [3]: 534.33 u/L | ASPARTATE AMINOTRANSFERASE [3]: 88.33 u/L | BLOOD UREA NITROGEN [3]: 15 mg/dL | CARBON DIOXIDE [3]: 27.33 mmol/L | CHLORIDE [3]: 102.33 MEQ/L | CHOLESTEROL [3]: 67 mg/dL | CREATINE PHOSPHOKINASE [3]: 215 u/L | CREATININE [3]: 0.13 mg/dL | GLUCOSE [3]: 152.67 mg/dL | LACTATE DEHYDROGENASE [3]: 181.67 u/L | LIPASE [3]: 10 u/L | PHOSPHORUS [3]: 11.4 mg/dL | POTASSIUM [3]: 5.59 MEQ/L | SODIUM [3]: 144.4 MEQ/L | TOTAL BILIRUBIN [3]: 0.13 mg/dL | TOTAL PROTEIN [3]: 5.53 G/DL | URIC ACID [3]: 1.63 mg/dL

— ChEMBL document CHEMBL3885881, “DrugMatrix”
